According to PubChem BioAssay (NCI):
Where “and” joins values, the source holds several entries; their conditions need not be identical. Identical values can stand only once.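 Method: 48-hour compound exposure of cells in 96-well plates, five concentrations, linear interpolation of endpoints. Abbreviation: GI50, concentration required for 50% inhibition of growth. TGI marks complete inhibition of growth.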

Columns and labels:
Test in all cases: growth of human tumour cells (NCI), 48 h
M14 melanoma = tested on: M14 melanoma
SK-OV-3 ovarian = tested on: SK-OV-3 ovarian
MDA-MB-231 breast = tested on: MDA-MB-231 breast
NCI-H226 lung = tested on: NCI-H226 lung
SR leukemia = tested on: SR leukemia
SW-620 colon = tested on: SW-620 colon
SK-MEL-28 melanoma = tested on: SK-MEL-28 melanoma

Structure (SMILES) | GI50 (M14 melanoma) | TGI (M14 melanoma) | GI50 (SK-OV-3 ovarian) | TGI (SK-OV-3 ovarian) | GI50 (MDA-MB-231 breast) | TGI (MDA-MB-231 breast) | GI50 (NCI-H226 lung) | TGI (NCI-H226 lung) | GI50 (SR leukemia) | TGI (SR leukemia) | GI50 (SW-620 colon) | TGI (SW-620 colon) | GI50 (SK-MEL-28 melanoma) | TGI (SK-MEL-28 melanoma)
COc1cc2c(cc1OC)-c1c(c3ccc([N+](=O)[O-])cc3c(=O)n1CCCN=[N+]=[N-])C2=O | 20.3 µM | 67.3 µM | > 100 µM | > 100 µM | > 100000 nM | > 100 µM | > 100 µM | > 100 µM | 509 nM | 3.68 µM | 99.8 µM | > 100 µM | > 100 µM | > 100 µM
COc1ccccc1-c1ccc2c(N)c(C(=O)c3ccc4c(c3)OCO4)sc2n1 | 4.21 µM | 75 µM | 5.97 µM | 18.2 µM | 2810 nM | 8.59 µM | 7.35 µM | 31.8 µM | 2990 nM | 31.1 µM | 4.34 µM | > 100 µM | 5.03 µM | 19.9 µM
CC[C@H](C)C(=O)O[C@H]1CCC=C2C=C[C@H](C)[C@H](CC[C@@H]3C[C@@H](O)CC(=O)O3)[C@H]21 | 8.97 µM | > 100 µM | 5.96 µM | > 100 µM | 352 nM | 2.54 µM | 6.82 µM | > 82.2 µM | 3790 nM | > 59.4 µM | 11.8 µM | > 100 µM | 15.3 µM | > 100 µM
CCCCNP1(NCCCC)=NP(NCCCC)(NCCCC)=NP(NCCCC)(NCCCC)=NP(NCCCC)(NCCCC)=N1 | 1.08 µM | 5.23 µM | 1.07 µM | 9.75 µM | 418 nM | 4.08 µM | 1.72 µM | 7.91 µM | – | – | 0.861 µM | 15.9 µM | 2.64 µM | 8.68 µM
O=C(Nc1cccc(-n2ccc3c(NC(=O)c4ccccc4)nccc32)c1)c1ccc(Cl)c(Cl)c1 | 0.117 µM | 0.802 µM | 0.0956 µM | 1.1 µM | 302 nM | 1.34 µM | 0.568 µM | 3.65 µM | 40.8 nM | – | 0.106 µM | 1.48 µM | 0.298 µM | 2.06 µM
COC(=O)c1cc2c([nH]c3ccccc32)c(-c2nc3ccccc3cc2CO)n1 | > 100 µM | > 100 µM | 55.9 µM | > 100 µM | 40000 nM | > 100 µM | > 100 µM | > 100 µM | > 100000 nM | > 100 µM | > 100 µM | > 100 µM | > 100 µM | > 100 µM
Fc1ccc(-c2c(-c3ccncc3)[nH]c3cccnc23)cc1 | > 25 µM | > 25 µM | 10.6 µM | > 25 µM | > 25000 nM | > 25 µM | > 15.2 µM | > 25 µM | > 18900 nM | > 25 µM | > 25 µM | > 25 µM | > 25 µM | > 25 µM
N#Cc1ccc(C(=O)c2cnn(-c3ccc(F)cc3)c2N)cc1 | > 25 µM | > 25 µM | > 25 µM | > 25 µM | > 23300 nM | > 25 µM | > 25 µM | > 25 µM | > 25000 nM | > 25 µM | > 25 µM | > 25 µM | > 25 µM | > 25 µM
CCc1c2c(nc3ccc(OC(=O)OCc4ccc(B5OC(C)(C)C(C)(C)O5)cc4)cc13)-c1cc3c(c(=O)n1C2)COC(=O)[C@]3(O)CC | < 0.01 µM | 0.92 µM | 0.0151 µM | > 100 µM | 892 nM | 43.7 µM | 0.011 µM | 0.157 µM | < 10 nM | > 100 µM | < 0.0127 µM | – | 0.262 µM | 7.32 µM
COc1cc(C(=O)c2cnc(-c3ccc4cc[nH]c4c3)[nH]2)cc(OC)c1OC | – | – | 0.0358 µM | 1.93 µM | 60.9 nM | 1.44 µM | 0.117 µM | 9 µM | 30.2 nM | 23.8 µM | 0.0398 µM | 21.7 µM | 0.454 µM | 16 µM
CN1CCN(C(=O)[C@@]2(C)CC[C@]3(C)CC[C@]4(C)C(=CC[C@@H]5[C@@]6(C)CC[C@H](OC(=O)c7cccnc7)C(C)(C)[C@@H]6CC[C@]54C)[C@@H]3C2)CC1 | 1.62 µM | 3.1 µM | 10.4 µM | 22 µM | 2030 nM | 3.95 µM | 10.2 µM | 24 µM | 937 nM | 4.08 µM | 1.79 µM | 3.59 µM | 1.79 µM | 3.34 µM
COc1ccc(C2CC(c3ccc4ccccc4c3)=NN2c2nc(O)c(C3=c4cc(Cl)ccc4=NC3=O)s2)cc1 (centres undefined) | 0.0354 µM and < 0.005 µM | – | 0.0217 µM and < 0.005 µM | – | 21 nM | 0.0462 µM | 0.0208 µM | 0.052 µM | 33.8 nM and < 5 nM | < 0.005 µM | 0.0187 µM and < 0.005 µM | 0.0374 µM and < 0.005 µM | 0.0258 µM and < 0.005 µM | –
CCOC1Oc2ccccc2C(=O)/C1=C\Nc1ccc(C(=O)O)c(O)c1 (centres undefined) | 17.3 µM | 36 µM | 21.7 µM | 67.6 µM | 14000 nM | 31.2 µM | 28.1 µM | 80.1 µM | 39400 nM | > 100 µM | 30.8 µM | > 100 µM | 23.9 µM | 65.9 µM
CN(C)c1ccc(/C=N/n2c(CCCCc3n[nH]c(=S)n3/N=C/c3ccc(N(C)C)cc3)n[nH]c2=S)cc1 | > 100 µM | > 100 µM | > 100 µM | > 100 µM | 41300 nM | > 100 µM | > 100 µM | > 100 µM | > 100000 nM | > 100 µM | > 100 µM | > 100 µM | > 100 µM | > 100 µM
NS(=O)(=O)c1ccc(-n2nc(-c3ccccc3)cc2-c2cc(O)ccc2O)cc1 | 31.9 µM | 80.8 µM | – | – | 25600 nM | 72 µM | > 100 µM | > 100 µM | – | – | > 100 µM | > 100 µM | 94.3 µM | > 100 µM
CCOP(=O)(OCC)C(NC(c1ccccc1)c1ccccc1)c1ccsc1 (centres undefined) | 16.5 µM | 30.5 µM | – | – | 7050 nM | 20.5 µM | 13.7 µM | 28.8 µM | 23000 nM | 98.2 µM | 29.2 µM | 61.5 µM | – | –
COc1ccc2[nH]cc(Cc3c[nH]c4ccc(OC)cc34)c2c1 | 20.3 µM | 44 µM | – | – | 4650 nM | 19.4 µM | 18.5 µM | 48.9 µM | 77800 nM | > 100 µM | 18.3 µM | 32.2 µM | 21.8 µM | 53 µM
C=C1C(=O)O[C@H]2[C@H]1CC/C(CNC(=O)C(C)c1ccc(CC(C)C)cc1)=C\CC[C@@]1(C)O[C@@H]21 (some centres undefined) | 1.85 µM | 3.98 µM | 12.3 µM | 24.8 µM | 1960 nM | 4 µM | 1.66 µM | 3.27 µM | – | – | 1.69 µM | 3.55 µM | 1.67 µM | 3.32 µM
CC1OC(OC2C(O)C(OCCc3ccc(O)c(O)c3)OC(CO)C2OC(=O)/C=C/c2ccc(O)c(O)c2)C(O)C(O)C1O (centres undefined) | > 100 µM | > 100 µM | > 100 µM | > 100 µM | 16300 nM | 34.7 µM | – | – | 634 nM | > 100 µM | 28.7 µM | 72 µM | 52.7 µM | > 100 µM
CC(C)c1ccc(C(O)(C(=O)O)c2ccc(C(C)C)cc2)cc1 | – | > 100 µM | – | > 100 µM | – | – | – | 54.6 µM | – | > 100 µM | – | > 100 µM | – | > 100 µM
Cc1cc(C(=O)CC(Cl)=C(Cl)Cl)c(Cl)cc1Cl | 31.7 µM | 78.2 µM | 49.8 µM | > 100 µM | 23400 nM | 46.2 µM | 23.9 µM | 76.3 µM | – | – | 21.7 µM | 52.3 µM | 33.5 µM | > 100 µM
COC1/C=C/OC2(C)Oc3c(C)c(O)c4c(O)c(c(/C=N/N(c5ccccc5)c5ccccc5)c(O)c4c3C2=O)NC(=O)C(C)=C/C=C/C(C)C(O)C(C)C(O)C(C)C(OC(C)=O)C1C (centres undefined) | – | – | 6.38 µM | 12.9 µM | 1380 nM | 4.14 µM | 4.23 µM | 11.8 µM | 1400 nM | 3.39 µM | 1.05 µM | 2.6 µM | 1.07 µM | 2.43 µM
CN(C)c1ccc2cc3c(cc2c1)Oc1ccccc1N3.[Cl][Zn][Cl] | 4.73 µM | 18 µM | 17 µM | 33.3 µM | 1830 nM | 4.51 µM | 1.73 µM | 4.07 µM | 3150 nM | > 100 µM | – | – | 2.5 µM | 7.04 µM
Cc1cc2oc(=O)cc(OC/C=C3/CCC(=O)O3)c2cc1C | 2.18 µM | 4.87 µM | 12.8 µM | 26.1 µM | 7710 nM | 21 µM | 10.8 µM | 51.1 µM | – | – | 2.78 µM | 11.6 µM | 10.6 µM | 24 µM
COc1ccc2[nH]cc(C3(c4c[nH]c5ccc(OC)cc45)C(=O)Nc4ccc(Cl)cc43)c2c1 | 4.06 µM | > 100 µM | 5.42 µM | 23.4 µM | 2080 nM | 5.43 µM | 3.38 µM | 30 µM | – | – | 3.89 µM | 49.4 µM | 3.1 µM | 13.1 µM
